Consider 6 substances from US20110236406A1, “IMMUNOGENIC COMPOSITIONS COMPRISING HMGB1 POLYPEPTIDES” (MedImmune, LLC, priority 2004, published 2011).

“Also recorded” adds a separate entry of the source. No end group written: not given here. *: point of attachment. Biotin = O=C1N[C@H]2[C@H](CS[C@H]2CCCCC(=O)*)N1

One assay deals with allogeneic T cells. The assay can be described thus: Mixed leukocyte reaction, stimulated murine BM-DCs with allogeneic T cells. The format is cell-based, mouse. Particulars: BM-DCs from C57/BL6 mice; HMGB1-Bx 50 μg/ml, peptides 200 μg/ml, 48 h; 5-day co-culture. As for the experimental part:
T cells were isolated by negative selection using the mouse SpinSep antibody cocktail from StemCell Technologies (Vancouver, Calif.) according to the manufacturer's instructions. The cell purity of the isolated T cells was routinely ˜99% pure.
To assess levels of T cell activation and proliferation, cells were plated at 10^5 cells per well in a round-bottomed 96-well tray at DC:T cell ratios of 1:120 for 5 days in medium described above. The microcultures were pulsed with (^3H)-thymidine (1 μCi/well) for the final 8 h of culture. Cell cultures were harvested onto glass fiber filters with an automated multiple sample harvester and the amount of isotope incorporation was determined by liquid scintillation β-emission. Responses are reported as mean cpm of thymidine incorporation by triplicate cultures (+/−SEM).

Assay [1] has as its system human monocyte-derived DCs. Briefly: Cytokine and chemokine secretion by human immature monocyte-derived DCs (ELISA). Also noted: key to TNFα / IL-18 / IL-8 / IL-10 / IL-6 / IL-12: + indicates increase; − indicates no change compared to medium. Particulars: for secretion of IL-6 / secretion of IL-8 / secretion of IL-12 (p70) / secretion of IL-18 / secretion of TNF-α: Example 2, peptides 200 μg/ml, HMGB1-Bx 50 μg/ml, polymyxin B, 48 h; for secretion of IL-6: FIG. 8A, 8B; for secretion of IL-8 / secretion of IL-12 (p70) / secretion of IL-18 / secretion of TNF-α: FIG. 8C; for IL-6 / IL-8 / IL-10 / IL-12 / IL-18 / TNFα: HUMAN DC, ELISA 48 h after exposure, compared to medium. The format is cell-based. As for the experimental part: (§1) PBMCs were isolated from the blood of normal volunteers (Long Island Blood Services, Melville, N.Y.) over a Ficoll-Hypaque (Amersham Biosciences, Uppsala, Sweden) density gradient. CD14^+ monocytes were isolated from PBMCs by positive selection using anti-CD14 beads (Miltenyi Biotech., Auburn, Calif.) following the manufacturer's instructions. To generate DCs, CD14^+ cells were cultured in RPMI 1640 medium supplemented with 2 mM L-glutamine (GIBCO-BRL Life Technologies; Grand Island, N.Y.), 50 μM 2-mercaptoethanol (Sigma, St. Louis, Mo.), 10 mM HEPES (GIBCO-BRL), penicillin (100 U/ml)-streptomycin (100 μg/ml) (GIBCO-BRL), and 5% human AB serum (Gemini Bio-Products, Woodland, Calif.). Cultures were maintained for 7 days in 6-well trays (3×10^6 cells/well) supplemented with 1000 U GM-CSF per ml (Immunex, Seattle, Wash.) and 200 U IL-4 per ml (R&D Systems; Minneapolis, Minn.) at days 0, 2, 4 and 6.
(§2) At day 7 of culture, immature DCs were either left untreated (“immature”, IM), or were stimulated with indicated doses of (i) LPS (E. coli serotype 026:B6, Sigma), (ii) 500 ng/ml of trimeric CD40L (Alexis Biochemicals; San Diego, Calif.), (iii) a cocktail of cytokines (CyC) consisting of IL-6 at 1000 U/ml, TNFα at 10 ng/ml, IL-1β at 10 ng/ml (all from R&D Systems) and prostaglandin E2 (PGE-2) at 1 μg/ml (Sigma), or with (v) non-methylated CpG oligonucleotides (5′ […] 3′) at 30 μg/ml. The sequence of this oligonucleotide is known to induce DC maturation (4), except that it contains an unmodified phosphodiester backbone. In all experiments, DCs were analyzed 48 h after stimulation. All experiments using the rB box were performed in the presence of polymyxin B sufficient to neutralize greater than 10-fold more LPS than present in rB box preparations.
(§3) 48 h post activation, the production of cytokines and chemokines in cell culture supernatants was measured by ELISA (Pierce Boston Technology Center, SearchLight™ Proteome Arrays Multiplex Sample Testing Services, Woburn, Mass.).
as §1, with “DCs, CD 14^+” for “DCs, CD14^+”
(§4) At day 7 of culture, immature DCs were either left untreated, or were stimulated with indicated doses of HMGB1-Bx, HMGB1 peptides, or LPS (E. coli serotype 026:B6, Sigma). In all experiments, DCs were analyzed 48 h after stimulation.

Assay [2] deals with murine BM-DCs. Briefly: Cytokine and chemokine secretion by murine bone marrow-derived DCs (ELISA). The format is cell-based, mouse. More on the design: key to TNFα / IL-18 / IL-8 / IL-10 / IL-2 / IL-1β / IL-5 / IL-6 / IL-12: + indicates increase; − indicates no change compared to medium. As for the experimental part: (§5) Bone marrow-derived DCs (BM-DC) were generated using modifications of the original method described by Inaba et al (42). In brief, bone marrow suspensions were incubated with red cell lysis buffer (PUREGENE™ RBC Lysis Solution, Gentra Systems, Minneapolis, Minn.) to remove red blood cells. After washing in media, lymphocytes and Ia-positive cells were killed with a cocktail of mAbs and rabbit complement for 60 min at 37° C. The mAbs were GK1.5 anti-CD4, TIB211 anti-CD8, TIB 120 anti-Ia, and TM 146 anti B220 (The Abs were kindly provided by Dr. Ralph Steinman). The cells were subsequently cultured in media containing 5% FCS and 10 ng/ml recombinant mouse GM-CSF (R&D Systems; Minneapolis, Minn.) for 7 days. For some experiments the cells were further purified at day 7 using CD11c^+-microbeads (Miltenyi Biotech., Auburn, Calif.) according to the manufacturer's instructions.
as §4, §3
For orientation: In an ELISA, binding on a coated surface is turned into a signal by an enzyme label.

For assay [3], the system named is murine BM-DCs. The assay can be described thus: Phenotypic maturation of murine BM-DCs (surface markers, FACS). The format is cell-based, mouse. Particulars: CD11c+ gated BM-DCs, 48 h; HMGB1-Bx 50 μg/ml, peptides 200 μg/ml. As for the experimental part: as §5, §4
1×10^4 DCs were reacted for at least 20 min at 4° C. in 100 μl of PBS/5% FCS/0.1% sodium azide (staining buffer) with fluorescein isothiocyanate (FITC)-conjugated IgG mAb specific for CD86, CD40 and MHC-II (eBioscience). Cells were then washed 4 times with staining buffer, fixed in 10% formaldehyde in PBS (pH 7.2-7.4) and examined by flow cytometry using a FACScan (BD). In all experiments, isotype controls were included using FITC-conjugated irrelevant mAb of the same Ig class.

The test system of a further assay is immature DCs. Briefly: Phenotypic maturation of human DCs (surface markers, FACS). Format: cell-based. Particulars: 48 h, rHMGB1 0.1-10.0 μg/ml. On the procedure: as §1, §2
1×10^4 DCs were reacted for at least 20 min at 4° C. in 100 μl of PBS/5% FCS/0.1% sodium azide (staining buffer) with phycoerythrin (PE)-conjugated IgG specific for CD206, CD54, HLA-DR (all from Beckton Dickinson Immunostaining Systems; San Jose. Calif.) and CD83 (Immunotech-Beckman-Coulter; Marseille, France) or fluorescein isothiocyanate (FITC)-conjugated IgG mAb specific for CD80, CD40 and CD58 (all from Beckton Dickinson Immunostaining Systems; San Jose. Calif.). Cells were then washed 4 times with staining buffer, fixed in 10% formaldehyde in PBS (pH 7.2-7.4) and examined by flow cytometry using a FACScan (BD). In all experiments, isotype controls were included using an appropriate PE- or FITC-conjugated irrelevant mAb of the same Ig class.

Setting [4] is: peptides 200 μg/ml, HMGB1-Bx 50 μg/ml, polymyxin B, 48 h.
Setting [5] is: Murine DC, ELISA 48 h after exposure, compared to medium.

As to “SERWKTMSAKEKGKFEDM (Biotin-SERWKTMSAKEKGKFEDM; listed as Homo sapiens) [Hp-46]”, in the assay with allogeneic T cells, the “T cell stimulatory activity of exposed BM-DCs in mixed lymphocyte reaction” value is “did not show enhanced T cell stimulatory activity”.
Regarding CSEYRPKIKGEHPGLSIG [Hp-106 non-bio], the “secretion of IL-6” value in assay [1] was “no activity”. For the same substance, in the assay on murine BM-DCs [2] (setting [4]), the “secretion of IL-12 (p70)” value was “did not enhance IL-12 secretion”.
With “SIGDVAKKLGEMWNNTAA (Biotin-SIGDVAKKLGEMWNNTAA; listed as Homo sapiens) [Hp-121, control peptide]”, in the assay with murine BM-DCs [3], the CD40 expression result is listed as “No altered expression”, the CD86 expression entry is given as “No altered expression” and the MHC-II expression entry was “No altered expression”. Besides, the “T cell stimulatory activity of exposed BM-DCs in mixed lymphocyte reaction” value in the assay with allogeneic T cells is given as “did not show enhanced T cell stimulatory activity”.
Consider “recombinant HMGB1: Human recombinant HMGB1 expressed in Escherichia coli; full-length sequence SEQ ID NO:1”, for which, in the assay on immature DCs, the CD86 expression entry is listed as “increases”. Moreover, in the assay with immature DCs (rB box 100 μg/ml), the CD40 expression entry is on record as “increases”, the CD54 expression result is “increases”, the CD83 expression result is recorded as “increases” and the “CD206 (macrophage mannose receptor) expression” value was “decrease”. Also, the MHCII expression entry in the assay on immature DCs (rB box 100 μg/ml) is listed as “increases”.
In the case of “DPNAPKRPPSAFFLFCSE (Biotin-DPNAPKRPPSAFFLFCSE; listed as Homo sapiens) [Hp-91]”, in assay [1], the “secretion of IL-6” value is given as “enhanced the IL-6 secretion; also recorded: induced IL-6 secretion”, the “secretion of IL-8” value is “not”, the “secretion of IL-12 (p70)” value is given as “increased secretion” and the “secretion of IL-18” value is reported as “increased secretion”. Further, in assay [1], the “secretion of TNF-α” value is on record as “increased secretion”, the IL-6 result is “+”, the IL-8 entry is on record as “−” and the IL-10 result was “−”. Moreover, in assay [1], the IL-12 result was “+”, the IL-18 entry is recorded as “+” and the TNFα result is reported as “+”. In the assay with murine BM-DCs [2] (setting [5]), the IL-1β result is given as “+”, the IL-2 result was “+”, the IL-5 entry is given as “+” and the IL-6 entry is “−”. Moreover, in the assay with murine BM-DCs [2] (setting [5]), the IL-8 result is “−”, the IL-10 result is listed as “−”, the IL-12 result is “+” and the IL-18 entry was “−”. The TNFα entry in the assay with murine BM-DCs [2] (setting [5]) is reported as “−”. Besides, the “activation of murine BM-DCs” value with murine BM-DCs [2] (peptides 200 μg/ml, 48 h) is reported as “activated”. Moreover, in the assay on murine BM-DCs [2] (setting [4]), the “secretion of IL-1β” value is given as “increased production”, the “secretion of IL-2” value is recorded as “increased production”, the “secretion of IL-5” value is “increased production” and the “secretion of IL-8” value is listed as “not”. For the same substance, in the assay on murine BM-DCs [2] (setting [4]), the “secretion of TNF-α” value is reported as “not”.
As for “HPDASVNFSEFSKKCSER (Biotin-HPDASVNFSEFSKKCSER; listed as Homo sapiens) [Hp-31]”, in assay [1], the “secretion of IL-6” value is “induced secretion of IL-6”, the “secretion of IL-8” value is listed as “not”, the “secretion of IL-12 (p70)” value is “increased secretion” and the “secretion of IL-18” value is on record as “increased secretion”. For the same substance, in assay [1], the “secretion of TNF-α” value was “increased secretion”, the IL-6 result was “+”, the IL-8 entry was “−” and the IL-10 result is on record as “−”. For the same substance, in assay [1], the IL-12 result is recorded as “+”, the IL-18 entry is reported as “+” and the TNFα entry is “+”. Moreover, in the assay with murine BM-DCs [2] (setting [5]), the IL-1β result is recorded as “+”, the IL-2 entry is recorded as “+”, the IL-5 result is “+” and the IL-6 result is “−”. For the same substance, in the assay on murine BM-DCs [2] (setting [5]), the IL-10 result is on record as “−” and the IL-12 entry is listed as “+”. In addition, in the assay with murine BM-DCs [2] (peptides 200 μg/ml, 48 h), the “activation of murine BM-DCs” value is “activated”. In addition, in the assay with murine BM-DCs [2] (setting [4]), the “secretion of IL-1β” value is “enhanced the production”, the “secretion of IL-2” value is on record as “enhanced the production”, the “secretion of IL-5” value is “enhanced the production” and the “secretion of IL-12 (p70)” value is on record as “enhanced the production”. The “secretion of IL-10” value in the assay on murine BM-DCs [2] (peptides 200 μg/ml, polymyxin B, 48 h) is reported as “not”.
